In ChEMBL document CHEMBL1201862, “PubChem BioAssay data set” (2004):
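Test compounds were applied to cells in 96-well plates for 48 hours at 5 doses. At the GI50, growth is halved.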 Calls of active or inactive are those of the source. No stated cut-off is given here; in the data, active = GI50 up to about 1.1 µM and inactive = higher.

Tests used:
Assay in all cases: NCI anticancer screen, dose series, 48 h
K562 = tested on: K562
OVCAR-8 = tested on: OVCAR-8
NCI-H226 = tested on: NCI-H226
OVCAR-4 = tested on: OVCAR-4
SR = tested on: SR
OVCAR-5 = tested on: OVCAR-5
COLO 205 = tested on: COLO 205
UACC-62 = tested on: UACC-62
SF-268 = tested on: SF-268
KM-20L2 = tested on: KM-20L2
A498 = tested on: A498
LOX IMVI = tested on: LOX IMVI
A549 = tested on: A549
Malme-3M = tested on: Malme-3M
MOLT-4 = tested on: MOLT-4
NCI-H23 = tested on: NCI-H23
ACHN = tested on: ACHN
MCF7 = tested on: MCF7
HOP-92 = tested on: HOP-92
SNB-19 = tested on: SNB-19
HCT-116 = tested on: HCT-116
BT-549 = tested on: BT-549
KM12 = tested on: KM12
TK-10 = tested on: TK-10
LXFL 529 = tested on: LXFL 529
SN12C = tested on: SN12C
CCRF-CEM = tested on: CCRF-CEM
HOP-18 = tested on: HOP-18
DMS-114 = tested on: DMS-114
MDA-MB-435 = tested on: MDA-MB-435
Hs-578T = tested on: Hs-578T
HT-29 = tested on: HT-29
UACC-257 = tested on: UACC-257
HCC 2998 = tested on: HCC 2998
UO-31 = tested on: UO-31
HOP-62 = tested on: HOP-62
MDA-MB-231 = tested on: MDA-MB-231
RPMI-8226 = tested on: RPMI-8226
NCI/ADR-RES = tested on: NCI/ADR-RES
SNB-78 = tested on: SNB-78
HL-60 = tested on: HL-60
SF-295 = tested on: SF-295
RXF 393 = tested on: RXF 393
EKVX = tested on: EKVX
NCI-H522 = tested on: NCI-H522
PC-3 = tested on: PC-3
HCT-15 = tested on: HCT-15
M14 = tested on: M14
DU-145 = tested on: DU-145
SNB-75 = tested on: SNB-75
SK-MEL-28 = tested on: SK-MEL-28
NCI-H460 = tested on: NCI-H460
CAKI-1 = tested on: CAKI-1
SW-620 = tested on: SW-620
SK-MEL-2 = tested on: SK-MEL-2
U-251 = tested on: U-251
786-0 = tested on: 786-0
SF-539 = tested on: SF-539
SK-OV-3 = tested on: SK-OV-3
IGROV-1 = tested on: IGROV-1
OVCAR-3 = tested on: OVCAR-3
T47D = tested on: T47D
DLD-1 = tested on: DLD-1
M19-MEL = tested on: M19-MEL
DMS-273 = tested on: DMS-273
SK-MEL-5 = tested on: SK-MEL-5

CCc1nc2ccc(NCCN(C)C)c3c(=O)c4ccccc4n1c23
GI50 (K562): 0.468 µM (active)
GI50 (OVCAR-8): 0.515 µM (active)
GI50 (NCI-H226): 1.07 µM (active)
GI50 (OVCAR-4): 1.02 µM (active)
GI50 (SR): 0.193 µM (active)
GI50 (OVCAR-5): 1.67 µM (inactive)
GI50 (COLO 205): 0.307 µM (active)
GI50 (UACC-62): 2.14 µM (inactive)
GI50 (SF-268): 0.711 µM (active)
GI50 (KM-20L2): 0.741 µM (active)
GI50 (A498): 2.54 µM (inactive)
GI50 (LOX IMVI): 0.6 µM (active)
GI50 (A549): 0.38 µM (active)
GI50 (Malme-3M): 1.61 µM (inactive)
GI50 (MOLT-4): 0.175 µM (active)
GI50 (NCI-H23): 1.16 µM (inactive)
GI50 (ACHN): 0.417 µM (active)
GI50 (MCF7): 2.11 µM (inactive)
GI50 (HOP-92): 0.592 µM (active)
GI50 (SNB-19): 2.57 µM (inactive)
GI50 (HCT-116): 0.337 µM (active)
GI50 (BT-549): 4.61 µM (inactive)
GI50 (KM12): 0.701 µM (active)
GI50 (TK-10): 2.31 µM (inactive)
GI50 (LXFL 529): 0.82 µM (active)
GI50 (SN12C): 0.404 µM (active)
GI50 (CCRF-CEM): 0.586 µM (active)
GI50 (HOP-18): 0.891 µM (active)
GI50 (DMS-114): 1.49 µM (inactive)
GI50 (MDA-MB-435): 1 µM (active)
GI50 (Hs-578T): 1.78 µM (inactive)
GI50 (HT-29): 0.489 µM (active)
GI50 (UACC-257): 2.48 µM (inactive)
GI50 (HCC 2998): 0.762 µM (active)
GI50 (UO-31): 1.24 µM (inactive)
GI50 (HOP-62): 0.796 µM (active)
GI50 (MDA-MB-231): 0.135 µM (active)
GI50 (RPMI-8226): 0.752 µM (active)
GI50 (NCI/ADR-RES): 0.431 µM (active)
GI50 (SNB-78): 1.53 µM (inactive)
GI50 (HL-60): 1.75 µM (inactive)
GI50 (SF-295): 0.741 µM (active)
GI50 (RXF 393): 1.67 µM (inactive)
GI50 (EKVX): 1.17 µM (inactive)
GI50 (NCI-H522): 0.946 µM (active)
GI50 (PC-3): 0.8 µM (active)
GI50 (HCT-15): 0.456 µM
GI50 (M14): 1.52 µM (inactive)
GI50 (DU-145): 0.656 µM (active)
GI50 (SNB-75): 3 µM (inactive)
GI50 (SK-MEL-28): 2.44 µM (inactive)
GI50 (NCI-H460): 0.23 µM (active)
GI50 (CAKI-1): 1.56 µM (inactive)
GI50 (SW-620): 0.305 µM (active)
GI50 (SK-MEL-2): 3.07 µM (inactive)
GI50 (U-251): 0.796 µM (active)
GI50 (786-0): 0.479 µM (active)
GI50 (SF-539): 1.67 µM (inactive)
GI50 (SK-OV-3): 1.69 µM (inactive)
GI50 (IGROV-1): 0.265 µM (active)
GI50 (OVCAR-3): 0.979 µM (active)
GI50 (T47D): 2.59 µM (inactive)
GI50 (DLD-1): 0.533 µM (active)
GI50 (M19-MEL): 2 µM (inactive)

CC1=C[P+](Cc2ccccc2)(c2ccccc2)CC1 (stereo unspecified)
GI50 (OVCAR-8): > 100 µM (inactive)
GI50 (SR): 57 µM (inactive)
GI50 (OVCAR-5): > 100 µM (inactive)
GI50 (COLO 205): 41.5 µM (inactive)
GI50 (UACC-62): 66.5 µM (inactive)
GI50 (KM-20L2): 94.2 µM (inactive)
GI50 (LOX IMVI): > 100 µM (inactive)
GI50 (A549): > 100 µM (inactive)
GI50 (MOLT-4): > 100 µM (inactive)
GI50 (NCI-H23): > 100 µM (inactive)
GI50 (ACHN): > 100 µM (inactive)
GI50 (TK-10): 98.9 µM (inactive)
GI50 (LXFL 529): 23.3 µM (inactive)
GI50 (SN12C): > 100 µM (inactive)
GI50 (DMS-114): 35.2 µM (inactive)
GI50 (HT-29): 77.3 µM (inactive)
GI50 (UACC-257): 21.5 µM (inactive)
GI50 (RPMI-8226): 28.6 µM (inactive)
GI50 (HL-60): 36.3 µM (inactive)
GI50 (RXF 393): > 100 µM (inactive)
GI50 (NCI-H522): 65.2 µM (inactive)
GI50 (DMS-273): > 100 µM (inactive)
GI50 (HCT-15): 88.1 µM
GI50 (M14): 77.6 µM (inactive)
GI50 (SNB-75): > 100 µM (inactive)
GI50 (SK-MEL-28): 81.1 µM (inactive)
GI50 (NCI-H460): > 100 µM (inactive)
GI50 (SK-MEL-5): 27 µM (inactive)
GI50 (786-0): > 100 µM (inactive)
GI50 (SK-OV-3): > 100 µM (inactive)
GI50 (IGROV-1): 96.8 µM (inactive)
GI50 (OVCAR-3): 47.8 µM (inactive)
GI50 (M19-MEL): 29.9 µM (inactive)

CC(=O)Oc1cc(OC(C)=O)c2c(=O)c3ccccc3n(C)c2c1
GI50 (OVCAR-8): 16 µM (inactive)
GI50 (NCI-H226): 17.1 µM (inactive)
GI50 (OVCAR-4): 48.9 µM (inactive)
GI50 (UACC-62): 31.8 µM (inactive)
GI50 (SF-268): 23.2 µM (inactive)
GI50 (LOX IMVI): 11.5 µM (inactive)
GI50 (A549): 41.3 µM (inactive)
GI50 (Malme-3M): 25.7 µM (inactive)
GI50 (MOLT-4): 38 µM (inactive)
GI50 (NCI-H23): 22.6 µM (inactive)
GI50 (ACHN): 22 µM (inactive)
GI50 (SNB-19): 33.7 µM (inactive)
GI50 (HCT-116): 26.1 µM (inactive)
GI50 (KM12): 33.2 µM (inactive)
GI50 (TK-10): 29.8 µM (inactive)
GI50 (LXFL 529): 34.8 µM (inactive)
GI50 (SN12C): 25.5 µM (inactive)
GI50 (HOP-18): 14 µM (inactive)
GI50 (DMS-114): 18.4 µM (inactive)
GI50 (HT-29): 23.7 µM (inactive)
GI50 (UACC-257): 30.1 µM (inactive)
GI50 (UO-31): 21.2 µM (inactive)
GI50 (SNB-78): 31.6 µM (inactive)
GI50 (SF-295): 13.1 µM (inactive)
GI50 (RXF 393): 34 µM (inactive)
GI50 (NCI-H522): 10.4 µM (inactive)
GI50 (DMS-273): 16 µM (inactive)
GI50 (HCT-15): 42.1 µM
GI50 (SNB-75): 27.4 µM (inactive)
GI50 (SK-MEL-28): 25.4 µM (inactive)
GI50 (NCI-H460): 19.4 µM (inactive)
GI50 (SK-MEL-5): 15.1 µM (inactive)
GI50 (SK-MEL-2): 33 µM (inactive)
GI50 (SF-539): 18.7 µM (inactive)
GI50 (SK-OV-3): 25.2 µM (inactive)
GI50 (IGROV-1): 14.7 µM (inactive)
GI50 (OVCAR-3): 56.9 µM (inactive)
GI50 (DLD-1): 21.9 µM (inactive)
GI50 (M19-MEL): 21.6 µM (inactive)
